According to patent US11564904B2, “Gingko diterpene lactone composition” (Jiangsu Kanion Pharmaceutical Co., Ltd., priority 2017, dated 2023):

Key:
[1] = test system: ADP-induced platelet aggregation; test: In vitro ADP-induced platelet aggregation rate of rabbits; format: cell-based, New Zealand white rabbits; settings: compositions 9.26 μg/ml, nimodipine 0.05 μg/ml
Experimental: (§1) Rabbits were treated with procaine by local anesthesia, carotid arterial cannulation and bleeding. […] Incubation was performed for 5 min, then 10 μl of 146 μg/ml ADP and 10 μl of 10 μg/ml PAF were added in turn. […] Aggregation inhibition rate (%)=(maximum aggregation rate of blank control group−maximum aggregation rate of administration group)/maximum aggregation rate of blank control group×100%. The experimental data was expressed as x±s and analyzed by SPSS 17.0 statistical software. The comparison of means between multiple groups was performed by one-way analysis of variance. The comparison of sample means between two groups was performed by q test. P<0.05 was considered statistically significant.

[2] = test system: right middle cerebral artery occlusion (MCAO) model; test: Focal cerebral ischemia-reperfusion injury (MCAO) model in rats; format: in vivo, SD rats; settings: nimodipine 10.8 mg/kg, x ± s, n = 10
[3] = test system: PAF-induced platelet aggregation; test: In vitro PAF-induced platelet aggregation rate of rabbits; format: cell-based, New Zealand white rabbits; settings: compositions 9.26 μg/ml, nimodipine 0.05 μg/ml
Experimental: as §1

[4] = ADP 5.4 μg/ml, rabbit PRP, x ± s, n = 10
[5] = serum 24 hours after reperfusion, compositions 2.4 g·kg^−1 i.v.
[6] = PAF 0.37 μg/ml, rabbit PRP, x ± s, n = 10

With `COCCOC(=O)C1=C(C)NC(C)=C(C(=O)OC(C)C)C1c1cccc([N+](=O)[O-])c1` (stereo not shown) [Nimodipine] the “Platelet aggregation rate 1 min” value [1, 4] was 26.46 ± 4.41, the “Platelet aggregation rate 5 min” value [1, 4] was 38.33 ± 5.80 and the “Platelet aggregation rate Max” value [1, 4] was 41.85 ± 4.87. It also gave an inhibition at 0.05 µg/mL ([1]; Oryctolagus cuniculus, Platelet, ADP-induced, from maximum aggregation rate vs blank control) of 16%, an Infarct size % ([2]; TTC staining 24 hours after re-perfusion, compositions 2.4 g·kg^−1 i.v.) of 15.49 ± 5.94% and a BWC % ([2]; brain water content 24 hours after re-perfusion, compositions 2.4 g·kg^−1 i.v.) of 68.36 ± 8.97%. The Neurologic score ([2]; rat MCAO, 3 h ischemia, after reperfusion, compositions 2.4 g·kg^−1 tail vein injection) was 2.70 ± 0.95, the “MDA/nmol* mg^−1” value [2, 5] was 5.79 ± 1.75 nmol/mg and the “SOD/U*mg^−1” value [2, 5] was 26.94 ± 4.37 U*mg^−1. The inhibition at 0.05 µg/mL ([3]; Oryctolagus cuniculus, Platelet, PAF-induced, from maximum aggregation rate vs blank control) was 27%, the “Platelet aggregation rate 1 min” value [3, 6] was 27.13 ± 2.06 and the “Platelet aggregation rate 5 min” value [3, 6] was 42.18 ± 9.73. For the same molecule, the “Platelet aggregation rate Max” value [3, 6] was 48.08 ± 5.82.
